Measurements from patent publication US9938322B2, “β-hairpin peptidomimetics” (priority 2013, dated 2018).
*1 amine or outer side, *2 acyl side, *3 side chain or, on linkers, in order; H or OH if unused. Where a SMILES comes first, the peptide text is derived from it. [ ]: non-standard residue; d: D form. The star is where a group is joined. X2 = O=C([C@H](CCNCc1ccccn1)N[*:1])[*:2]; cisHyp = O=C(O)[C@@H]1C[C@H](O)CN1; Cha = N[C@@H](CC1CCCCC1)C(=O)O; Chg = N[C@H](C(=O)O)C1CCCCC1; Tle = CC(C)(C)[C@H](N)C(=O)O; dDab = NCC[C@@H](N)C(=O)O; Orn = NCCC[C@H](N)C(=O)O; Dab = NCC[C@H](N)C(=O)O; Nva = CCC[C@H](N)C(=O)O; Dap = NC[C@H](N)C(=O)O; Bn = c1ccc(C*)cc1

Tested on: human red blood cells (hRBC)
Experiment: Hemolysis of human red blood cells
Type: cell-based
Conditions: red cells of human, 1 h, 100
Method in brief: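 Washed fresh human erythrocytes (20% v/v, about 0.9×10^9 cells/ml final) incubated with peptide at 100 μg/ml for 1 h at 37° C with shaking. Supernatant OD540 read; hemolysis expressed relative to 2.5% Triton X-100 (100%) and PBS with 0.001% acetic acid (0%).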

SMILES | Hemolysis at 100 μg/ml
C[C@@H]1NC(=O)[C@H](Cc2c[nH]c3ccccc23)NC(=O)[C@@H]2C[C@H](OCc3ccccc3)CN2C(=O)[C@H]2CCCN2C(=O)[C@H](CO)NC(=O)[C@H](C)NC(=O)[C@H](C(C)(C)C)NC(=O)[C@H](CCN)NC(=O)[C@H](Cc2c[nH]c3ccccc23)NC(=O)[C@H](CCN)NC(=O)[C@H](CCN)NC(=O)[C@H](CCCN)NC(=O)[C@H](CCN)NC(=O)[C@H](CC2CCCCC2)NC1=O [compound 64] (cyclo(WA[Cha][Dab][Orn][Dab][Dab]W[Dab][Tle]AS[dP][cisHyp](Bn))) | 3%
C[C@@H]1NC(=O)[C@H](C2CCCCC2)NC(=O)[C@H](CCN)NC(=O)[C@H](Cc2c[nH]c3ccccc23)NC(=O)[C@H](CCN)NC(=O)[C@@H](CCN)NC(=O)[C@H](CCCN)NC(=O)[C@H](CCN)NC(=O)[C@H](C(C)(C)C)NC(=O)[C@H](CO)NC(=O)[C@H](Cc2ccc(O)cc2)NC(=O)[C@@H]2CCCN2C(=O)[C@H]2CCCN2C(=O)[C@H](CO)NC1=O [compound 69] (cyclo(YS[Tle][Dab][Orn][dDab][Dab]W[Dab][Chg]AS[dP]P)) | 7%
CC(C)C[C@@H]1NC(=O)[C@@H]2CCCN2C(=O)[C@H]2CCCN2C(=O)[C@H](CO)NC(=O)[C@H](C)NC(=O)[C@H](C(C)(C)C)NC(=O)[C@H](CCN)NC(=O)[C@H](Cc2c[nH]c3ccccc23)NC(=O)[C@H](CCN)NC(=O)[C@@H](CCN)NC(=O)[C@H](CCCN)NC(=O)[C@H](CCCN)NC(=O)[C@H](Cc2ccc(O)cc2)NC(=O)[C@H](CO)NC1=O [compound 87] (cyclo(LSY[Orn][Orn][dDab][Dab]W[Dab][Tle]AS[dP]P)) | 1%
CC(C)[C@@H]1NC(=O)[C@@H]2CCCN2C(=O)[C@H]2CCCN2C(=O)[C@H](CO)NC(=O)[C@H](C)NC(=O)[C@H](C(C)(C)C)NC(=O)[C@H](CCN)NC(=O)[C@H](Cc2c[nH]c3ccccc23)NC(=O)[C@H](CCN)NC(=O)[C@@H](CCN)NC(=O)[C@H](CCCN)NC(=O)[C@H](CCN)NC(=O)[C@H](CC2CCCCC2)NC(=O)[C@H](C)NC1=O [compound 51] (cyclo(VA[Cha][Dab][Orn][dDab][Dab]W[Dab][Tle]AS[dP]P)) | 1%
COC[C@@H]1NC(=O)[C@H](C(C)(C)C)NC(=O)[C@H](CCN)NC(=O)[C@H](Cc2c[nH]c3ccccc23)NC(=O)[C@H](CCN)NC(=O)[C@H](CCN)NC(=O)[C@H](CCCN)NC(=O)[C@H](CCN)NC(=O)[C@H](CC2CCCCC2)NC(=O)[C@H](C)NC(=O)[C@H](Cc2c[nH]c3ccccc23)NC(=O)[C@@H]2CCCN2C(=O)[C@H]2CCCN2C(=O)[C@H](CO)NC1=O [Ex. 5] (cyclo(WA[Cha][Dab][Orn][Dab][Dab]W[Dab][Tle]S(Me)S[dP]P)) | 0.5%
CC[C@H](C)[C@@H]1NC(=O)[C@@H]2CCCN2C(=O)[C@H]2CCCN2C(=O)[C@H](CO)NC(=O)[C@H](C)NC(=O)[C@H](Cc2c[nH]c3ccccc23)NC(=O)[C@H](CCN)NC(=O)[C@H](Cc2c[nH]c3ccccc23)NC(=O)[C@H](CCN)NC(=O)[C@@H](CCN)NC(=O)[C@H](CCCN)NC(=O)[C@H](CCN)NC(=O)[C@H](Cc2ccc(O)cc2)NC(=O)[C@H](CO)NC1=O [compound 110] (cyclo(ISY[Dab][Orn][dDab][Dab]W[Dab]WAS[dP]P)) | 1%
C[C@@H]1NC(=O)[C@H](C(C)(C)C)NC(=O)[C@H](CCN)NC(=O)[C@H](Cc2c[nH]c3ccccc23)NC(=O)[C@H](CCN)NC(=O)[C@@H](CCN)NC(=O)[C@H](CCCN)NC(=O)[C@H](CCNCc2ccccn2)NC(=O)[C@H](CC2CCCCC2)NC(=O)[C@H](CN)NC(=O)[C@H](Cc2c[nH]c3ccccc23)NC(=O)[C@@H]2CCCN2C(=O)[C@H]2CCCN2C(=O)[C@H](CO)NC1=O [Ex. 11] (cyclo(W[Dap][Cha][X2][Orn][dDab][Dab]W[Dab][Tle]AS[dP]P)) | 0%
CC(C)C[C@@H]1NC(=O)[C@@H]2CCCN2C(=O)[C@H]2CCCN2C(=O)[C@H](CO)NC(=O)[C@H](C)NC(=O)[C@H](C(C)(C)C)NC(=O)[C@H](CCN)NC(=O)[C@H](Cc2c[nH]c3ccccc23)NC(=O)[C@H](CN)NC(=O)[C@@H](CCN)NC(=O)[C@H](CCCN)NC(=O)[C@H](CCN)NC(=O)[C@H](Cc2ccc(O)cc2)NC(=O)[C@H](CO)NC1=O [Ex. 103] (cyclo(LSY[Dab][Orn][dDab][Dap]W[Dab][Tle]AS[dP]P)) | 1%
CC(C)C[C@@H]1NC(=O)[C@@H]2CCCN2C(=O)[C@H]2CCCN2C(=O)[C@H](CO)NC(=O)[C@H](CO)NC(=O)[C@H](C(C)(C)C)NC(=O)[C@H](CCN)NC(=O)[C@H](Cc2c[nH]c3ccccc23)NC(=O)[C@H](CCN)NC(=O)[C@@H](CCN)NC(=O)[C@H](CCCN)NC(=O)[C@H](CCN)NC(=O)[C@H](Cc2ccc(O)cc2)NC(=O)[C@H](C)NC1=O [compound 130] (cyclo(LAY[Dab][Orn][dDab][Dab]W[Dab][Tle]SS[dP]P)) | 0.2%
CC(C)C[C@@H]1NC(=O)[C@@H]2CCCN2C(=O)[C@H]2CCCN2C(=O)[C@H](CO)NC(=O)[C@H]([C@@H](C)O)NC(=O)[C@H](C(C)(C)C)NC(=O)[C@H](CCN)NC(=O)[C@H](Cc2c[nH]c3ccccc23)NC(=O)[C@H](CCN)NC(=O)[C@@H](CCN)NC(=O)[C@H](CCCN)NC(=O)[C@H](CCN)NC(=O)[C@H](Cc2ccc(O)cc2)NC(=O)[C@H](CC(N)=O)NC1=O [compound 120] (cyclo(LNY[Dab][Orn][dDab][Dab]W[Dab][Tle]TS[dP]P)) | 0%
CCC[C@@H]1NC(=O)[C@H](CCN)NC(=O)[C@H](Cc2c[nH]c3ccccc23)NC(=O)[C@H](CCN)NC(=O)[C@@H](CCN)NC(=O)[C@H](CCCN)NC(=O)[C@H](CCN)NC(=O)[C@H](Cc2ccc(O)cc2)NC(=O)[C@H](CO)NC(=O)[C@H](CC(C)C)NC(=O)[C@@H]2CCCN2C(=O)[C@H]2CCCN2C(=O)[C@H](CO)NC(=O)[C@H](C)NC1=O [compound 30] (cyclo(LSY[Dab][Orn][dDab][Dab]W[Dab][Nva]AS[dP]P)) | 1%
CC(C)C[C@@H]1NC(=O)[C@@H]2CCCN2C(=O)[C@H]2CCCN2C(=O)[C@H](CO)NC(=O)[C@H](CC(N)=O)NC(=O)[C@H](C(C)(C)C)NC(=O)[C@H](CCN)NC(=O)[C@H](Cc2c[nH]c3ccccc23)NC(=O)[C@H](CCN)NC(=O)[C@@H](CCN)NC(=O)[C@H](CCCN)NC(=O)[C@H](CCN)NC(=O)[C@H](Cc2ccc(O)cc2)NC(=O)[C@H]([C@@H](C)O)NC1=O [compound 119] (cyclo(LTY[Dab][Orn][dDab][Dab]W[Dab][Tle]NS[dP]P)) | 1%
